The values below come from patent US12435080B2, “sGC stimulators” (Tisento Therapeutics Inc., priority 2016, dated 2025).

Substitutions are numbered along the chain they refer to. Where two headings read alike, the source gives them in different places.

One data set addresses T1, sGC enzyme (Homo sapiens, UniProt Q02108+Q02153).
T1 construct: incorporated into these cells detect cGMP formed by the compounds stimulating the sGC enzyme; host or cells: HEK293 cells stably expressing GloSensor 40F cGMP biosensor
T1 sequence (Q02153 1-619): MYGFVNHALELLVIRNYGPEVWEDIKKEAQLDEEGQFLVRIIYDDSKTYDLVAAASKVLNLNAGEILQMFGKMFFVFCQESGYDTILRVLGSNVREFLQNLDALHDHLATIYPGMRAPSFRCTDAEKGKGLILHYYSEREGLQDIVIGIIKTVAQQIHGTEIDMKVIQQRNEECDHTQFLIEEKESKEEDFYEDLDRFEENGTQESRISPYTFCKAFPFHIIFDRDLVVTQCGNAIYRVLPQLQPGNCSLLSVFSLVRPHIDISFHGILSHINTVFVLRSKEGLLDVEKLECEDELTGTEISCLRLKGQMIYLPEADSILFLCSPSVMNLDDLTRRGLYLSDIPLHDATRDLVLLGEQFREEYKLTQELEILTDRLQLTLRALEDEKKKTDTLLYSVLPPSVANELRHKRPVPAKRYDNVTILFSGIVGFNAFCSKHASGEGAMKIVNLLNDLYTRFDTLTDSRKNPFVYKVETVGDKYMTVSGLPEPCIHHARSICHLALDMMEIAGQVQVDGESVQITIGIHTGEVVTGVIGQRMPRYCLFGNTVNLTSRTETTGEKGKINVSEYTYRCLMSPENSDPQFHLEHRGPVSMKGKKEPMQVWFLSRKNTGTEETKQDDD
T1 sequence (Q02108 1-690): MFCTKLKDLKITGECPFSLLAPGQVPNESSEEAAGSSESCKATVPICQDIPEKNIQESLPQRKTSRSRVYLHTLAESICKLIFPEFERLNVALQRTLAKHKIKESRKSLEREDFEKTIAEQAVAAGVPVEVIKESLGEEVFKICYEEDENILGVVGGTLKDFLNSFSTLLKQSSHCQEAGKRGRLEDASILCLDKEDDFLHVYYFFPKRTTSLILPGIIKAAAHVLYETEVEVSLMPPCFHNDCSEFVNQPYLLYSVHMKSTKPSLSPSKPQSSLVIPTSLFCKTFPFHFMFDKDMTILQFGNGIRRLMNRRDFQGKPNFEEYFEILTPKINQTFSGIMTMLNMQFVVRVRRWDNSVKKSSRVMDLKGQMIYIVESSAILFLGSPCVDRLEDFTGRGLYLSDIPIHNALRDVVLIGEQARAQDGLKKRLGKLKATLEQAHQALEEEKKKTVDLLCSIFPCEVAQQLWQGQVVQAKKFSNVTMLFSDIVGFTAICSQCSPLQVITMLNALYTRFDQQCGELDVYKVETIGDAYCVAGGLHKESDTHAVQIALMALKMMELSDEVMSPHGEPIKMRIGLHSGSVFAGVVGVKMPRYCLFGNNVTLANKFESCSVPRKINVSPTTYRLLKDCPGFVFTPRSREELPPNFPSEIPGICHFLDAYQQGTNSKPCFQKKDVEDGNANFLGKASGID
The data set is described as follows: cGMP GloSensor cell-based assay, 384-well format. To be noted: HEK293 cells expressing GloSensor 40F cGMP, 10 μM DETA-NONOate, normalized to 30 μM Compound Y. The procedure, abridged:
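HEK293 cells expressing GloSensor 40F cGMP luciferase biosensor, preloaded with 2 mM GloSensor substrate for 90 min at 25 °C. Endpoint luminescence read after 55 min compound incubation at room temperature.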

The next data set concerns the target T2, sGC (Rattus norvegicus, UniProt P20595).
T2 construct: Rat primary neurons were isolated from fetuses of 18-day pregnant Sprague-Dawley females; endogenous in cells; host or cells: Primary rat hippocampal neurons (E18 Sprague-Dawley fetuses)
T2 sequence (P20595 1-619): T1 sequence (Q02153 1-619) with N171S, E205D, N247K, T299A, K615N, D618E, D619N
The data set is described as follows: cGMP neuronal cell-based assay. The following applies: rat primary hippocampal neurons, 30 μM DETA-NO, cGMP by LC-MS/MS, normalized to 10 μM Compound Y. Here is the method:
Rat primary neurons were isolated from fetuses of 18-day pregnant Sprague-Dawley females. The fetuses were collected in Hanks' balanced salt solution (HBSS) and brains were rapidly removed. The cerebral hippocampi were isolated and mechanically fragmented. Further tissue digestion was performed with 0.25% (wt/vol) trypsin solution in HBSS without Ca2+ and Mg2+ for 15 min at 37° C. After trypsination, cells were washed and resuspended in neurobasal medium supplemented with 0.5 mM L-glutamine, 12.5 uM glutamic acid, 2% B-27 and 100U/mL penicillin, and 100 μg/mL streptomycin. Cells were plated at a density of 4×10^4 cells/well in a poly-D-lysine coated 384-well flat clear-bottom plate (Corning Cat No 354662). Cells were incubated 6-7 days at 37° C. in a humidified chamber with 5% CO2. Media was removed and cells were washed 1× with HBSS containing Ca2+ and Mg2+, and replaced with 40 uL HBSS containing 0.5 mM IBMX, and incubated for 15 minutes at 37° C. 10 uL of a 5× stock of test compounds with diethylenetriamine NONOate (DETA-NO) was added. Final concentration of DETA-NO was 30 μM. Cells were incubated for 20 min at 37° C. Medium was removed, 50 uL of ice-cold 10% acetic acid was added, and incubated for 60 minutes at 4° C. Following centrifugation at 4° C. for 5 minutes at 1000×g to pellet cell debris, the supernatant was aspirated to a clean plate and the samples were analyzed for cGMP content. cGMP concentrations were determined from each sample using LC-MS/MS.
Data were normalized to a high control using the following equation: 100*(Sample−Low Control)/(High Control−Low Control), where the low control is the average of 15 samples treated with 1% DMSO, and the high control is the average of 15 samples treated with 10 μM of the known sGC stimulator Compound Y (depicted in Example 2). Data were fit using a 4-parameter fit (log(agonist) vs. response—variable slope) using GraphPad Prism Software v.5. n=2 for all compounds. The Absolute EC50 was interpolated from the curve fit and is defined as the concentration at which a given compound elicits 50% of the high control response after data normalization. Compounds failing to elicit a minimum response of 50% are reported as >30 μM. For compounds run in duplicate or n higher than 2, the result herein given is the geometric mean of the several results obtained.

Data set [1] can be described thus: Rat cerebrospinal fluid (CSF) pharmacokinetic properties. The following applies: for concentration at 1 h: CSF, male Sprague-Dawley rats, PO 10 mg/kg in PEG400, 1 h post-dosing, read-out: CSF Conc. (nM @ 1 h); for Kp uu at 1 h: male, Sprague-Dawley, CSF and plasma (unbound), unbound CSF/unbound plasma ratio, rats, PO 10 mg/kg. It is filed as in vivo. Here is the method:
PK in rats was determined following oral dosing. For the oral (PO) experiments, a group of 6 male Sprague-Dawley rats with an indwelling catheter placed in the cisterna magna were used. The PO group was dosed with 3 or 10 mg/kg of a compound formulated as a solution in PEG400. PO doses were administered by oral gavage and delivered to the stomach using a syringe and gavage tube. Following oral dosage administration, the gavage tube was flushed with approximately 0.5 mL of water to ensure complete delivery of the full dose.
Plasma and CSF samples were collected as follows: samples of CSF and blood were collected at 1 hour and 2 hours post-dosing. CSF samples (0.05 mL) were collected through the intracisternal catheter. Blood samples (0.25 mL) were collected through retro-orbital sampling. These samples were kept on ice until processed for plasma. Blood samples were centrifuged at 3200 rpm for 5 minutes at approximately 5° C. within 1 hour of collection. Plasma was directly transferred to a 96-well plate tube (0.125 mL). Plug caps were placed on the tubes and the tubes frozen at approximately −70° C. and stored until analysis.
Plasma was collected and analyzed for the presence of compound.
The compound in question and the internal standard were extracted from plasma and CSF by precipitation. Samples were analyzed using liquid chromatography (LC) with tandem mass spectrometric detection (MS/MS) using electrospray ionization. The standard curve range was from 1 to 1000 ng/mL. Results of the compounds described herein in this assay are illustrated in Tables 4A (for compounds in Table IA) and 4B (for compounds in Table IB) below.
Kp,uu is defined as the concentration ratio of unbound drug in CSF to unbound drug in plasma. Unbound drug in plasma (or free plasma concentration) is calculated by multiplying the total plasma concentration by the unbound fraction as determined by plasma protein binding. The CSF concentration is then divided by the free plasma concentration to determine the Kp,uu. (See e.g., Di et al., J. Med. Chem., 56, 2-12 (2013))

Where [2] appears, read: compounds in Table IB, read-out: Glo-sensor Abs EC50.
The mark [3] stands for this setting: compounds in Table IB, read-out: sGC-Neuron Abs EC50.
[4] abbreviates: compounds in Table IA, read-out: Glo-sensor AbsEC50.
[5] abbreviates: compounds in Table IA, read-out: sGC-neuron Abs EC50.

As for `FC(F)(F)c1n[nH]c(-c2nc(CCC(F)(F)C(F)(F)F)c3ccccn23)n1` [Compound I-9], the EC50 on sGC enzyme (setting [2]) and at sGC (setting [3]) was 100 to 1000 nM throughout.

In the case of `Fc1ccc(F)c(Cc2nn(-c3nc(C(F)(F)F)n[nH]3)c3cccnc23)c1` [Compound I-130, 3-(2,5-Difluorobenzyl)-1-(3-(trifluoromethyl)-1H-1,2,4-triazol-5-yl)-1H-pyrazolo[4,3-b]pyridine], the figures for the EC50 on sGC enzyme (setting [4]) and at sGC (setting [5]) were less than 100 nM and not above 100 nM, respectively.

With `Fc1ccc(F)c(Cc2nn(-c3nc(C(F)F)n[nH]3)c3cccnc23)c1` [Compound I-131, 3-(2,5-Difluorobenzyl)-1-(3-(difluoromethyl)-1H-1,2,4-triazol-5-yl)-1H-pyrazolo[4,3-b]pyridine], the EC50 on sGC enzyme (setting [4]) was less than 100 nM; at sGC (setting [5]) it was not above 100 nM.

On to `FC(F)(F)c1n[nH]c(-c2nc(Cc3cncnc3)c3cc(Cl)ccn23)n1` [Compound I-6, 7-Chloro-1-(pyrimidin-5-ylmethyl)-3-(3-(trifluoromethyl)-1H-1,2,4-triazol-5-yl)imidazo[1,5-a]pyridine], for which the EC50 on sGC enzyme (setting [2]) was less than 100 nM; at sGC (setting [3]) it was not above 100 nM.

Take `Fc1cnc2c(c1)c(-c1nc(C(F)(F)F)n[nH]1)nn2Cc1ccccc1F` [Compound I-8, 5-Fluoro-1-(2-fluorobenzyl)-3-(3-(trifluoromethyl)-1H-1,2,4-triazol-5-yl)-1H-pyrazolo[3,4-b]pyridine]: the EC50 was less than 100 nM at sGC enzyme (setting [4]) and not above 100 nM at sGC (setting [5]).

`Fc1ccc2c(Cc3cncnc3)nc(-c3nc(C(F)(F)F)n[nH]3)n2c1` [Compound I-12, 6-fluoro-1-(pyrimidin-5-ylmethyl)-3-(3-(trifluoromethyl)-1H-1,2,4-triazol-5-yl)imidazo[1,5-a]pyridine]: in data set [1] (compounds in Table IB), the concentration at 1 h came out at 45 nM and the Kp uu at 1 h came to 0.16. Further, the EC50 on sGC enzyme (setting [2]) was less than 100 nM.

Regarding `Fc1cncc(Cn2nc(-c3nc(C(F)(F)F)n[nH]3)c3cccnc32)c1` [Compound I-1, 1-((5-fluoropyridin-3-yl)methyl)-3-(3-(trifluoromethyl)-1H-1,2,4-triazol-5-yl)-1H-pyrazolo[3,4-b]pyridine], in data set [1] (compounds in Table IA), the concentration at 1 h worked out at 164 nM and the Kp uu at 1 h amounted to 0.24. On sGC enzyme (setting [4]), the EC50 is less than 100 nM.

With `Fc1cccc(Cc2nn(-c3nc(C(F)F)n[nH]3)c3cccnc23)c1F` [Compound I-127, 3-(2,3-Difluorobenzyl)-1-(3-(difluoromethyl)-1H-1,2,4-triazol-5-yl)-1H-pyrazolo[4,3-b]pyridine], the EC50 at sGC enzyme (setting [4]) is 100 to 1000 nM; at sGC (setting [5]), not above 100 nM.
